The values that follow come from US9856279B2 (AGIOS PHARMACEUTICALS, INC, priority 2011, dated 2018).

pIC50: −log10 of the molar value.

For one assay, the target named is IDH1 R132H (Homo sapiens, UniProt O75874, R132H). Kind of assay: Assay for IDH1 R132H inhibitors (NADPH/aKG, resazurin detection). The format is biochemical. Conditions: Table 3; enzyme assay, 50 minutes at room temperature; read-out: IC50 (IDH1 R132H Inhibition). In outline: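 Read-out is resorufin fluorescence (Ex544/Em590) 5 min after adding a 30 μM resazurin detection mix. Before that, mutant enzyme (0.2 μg/ml in its mix) ran 50 min at room temperature with compound, 8 uM NADPH and 2 mM aKG (mix levels) in Tris pH 7.5 with NaCl, MgCl2, BSA.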
IDH1 R132H, sequence (O75874 whole entry R132H): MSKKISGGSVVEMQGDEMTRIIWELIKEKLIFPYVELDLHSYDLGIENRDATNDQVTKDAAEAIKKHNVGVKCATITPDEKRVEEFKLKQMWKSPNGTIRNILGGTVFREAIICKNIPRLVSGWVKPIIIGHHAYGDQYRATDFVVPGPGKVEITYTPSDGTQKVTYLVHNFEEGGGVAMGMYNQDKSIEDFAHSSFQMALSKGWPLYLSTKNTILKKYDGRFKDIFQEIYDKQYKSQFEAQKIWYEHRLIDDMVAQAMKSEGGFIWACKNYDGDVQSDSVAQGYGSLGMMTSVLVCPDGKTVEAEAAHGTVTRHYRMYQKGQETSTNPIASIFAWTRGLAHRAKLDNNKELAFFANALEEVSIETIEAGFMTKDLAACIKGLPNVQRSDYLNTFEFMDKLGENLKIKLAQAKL
Consider `Cc1occc1C(=O)N1CCN(c2nc(C(C)C)c(-c3ccc(C(C)C)cc3)cc2C#N)C[C@H]1C` [Compound 202, (R)-6-isopropyl-5-(4-isopropylphenyl)-2-(3-methyl-4-(2-methylfuran-3-carbonyl)piperazin-1-yl)nicotinonitrile], for which the pIC50 was 5.30 to 6.00.
In the case of `COCCC(=O)N1CCN(c2nc(C3CC3)c(-c3ccsc3)cc2C#N)C[C@H]1C` [Compound 246, (R)-6-cyclopropyl-2-(4-(3-methoxypropanoyl)-3-methylpiperazin-1-yl)-5-(thiophen-3-yl)nicotinonitrile], the pIC50 was no less than 6.00.
Same read-out and setting: with `COCCC(=O)N1CCN(c2nc(C(C)C)c(-c3ccc(C)c(F)c3)cc2C#N)C[C@H]1C` [Compound 221, (R)-5-(3-fluoro-4-methylphenyl)-6-isopropyl-2-(4-(3-methoxypropanoyl)-3-methylpiperazin-1-yl)nicotinonitrile] the figure was 5.30 to 6.00.
For the molecule `COCCC(=O)N1CCN(c2nc(C(C)C)c(-c3ccc(C)cc3)cc2C#N)C[C@H]1C` [Compound 198, (R)-6-isopropyl-2-(4-(3-methoxypropanoyl)-3-methylpiperazin-1-yl)-5-p-tolylnicotinonitrile], the pIC50 was 5.30 to 6.00.
As to `COCCC(=O)N1CCN(c2nc(C(C)C)c(-c3ccccc3)cc2C#N)C[C@H]1C` [Compound 222, (R)-6-isopropyl-2-(4-(3-methoxypropanoyl)-3-methylpiperazin-1-yl)-5-phenylnicotinonitrile], the negative logarithm of the IC50 (pIC50) was no less than 6.00.
On the same count and under the same terms, with `CC(C)c1nc(N2CCN(C(=O)c3ccoc3)[C@H](C)C2)c(C#N)cc1-c1ccc(C(F)(F)F)cc1` [Compound 187, (R)-2-(4-(furan-3-carbonyl)-3-methylpiperazin-1-yl)-6-isopropyl-5-(4-(trifluoromethyl)phenyl)nicotinonitrile] the figure was no less than 6.00; with `Cc1cccc(-c2cc(C#N)c(N3CCN(C(=O)c4ccoc4)[C@H](C)C3)nc2C(C)C)c1` [Compound 191], no less than 6.00; with `CC(C)c1nc(N2CCN(C(=O)Cc3ccccc3)CC2)c(C#N)cc1-c1ccccc1` [Compound 126, 6-isopropyl-5-phenyl-2-(4-(2-phenylacetyl)piperazin-1-yl)nicotinonitrile], 5.30 to 6.00.
Same read-out and setting: with `COCCC(=O)N1CCN(c2nc(C(C)C)c(-c3cccc(F)c3)cc2C#N)C[C@H]1C` [Compound 231, (R)-5-(3-fluorophenyl)-6-isopropyl-2-(4-(3-methoxypropanoyl)-3-methylpiperazin-1-yl)nicotinonitrile] the figure was 5.30 to 6.00.
The same measure, in the same setting: with `N#Cc1c(-c2ccccc2)cc(C2CCCCC2)nc1N1CCN(C(=O)c2ccco2)CC1` [Compound 137, 6-cyclohexyl-2-(4-(furan-2-carbonyl)piperazin-1-yl)-4-phenylnicotinonitrile] the figure was 4.82 to 5.30; with `CC(C)c1nc(N2CCN(C(=O)c3ccoc3)[C@H](C)C2)c(C#N)cc1-c1ccoc1` [Compound 204, (R)-2-(4-(furan-3-carbonyl)-3-methylpiperazin-1-yl)-5-(furan-3-yl)-6-isopropylnicotinonitrile], 5.30 to 6.00.
For `CC(C)c1cc(-c2cccc(O)c2)c(C#N)c(N2CCN(C(=O)c3ccoc3)[C@H](C)C2)n1` [Compound 152, (R)-2-(4-(furan-3-carbonyl)-3-methylpiperazin-1-yl)-4-(3-hydroxyphenyl)-6-isopropylnicotinonitrile], the pIC50 was 5.30 to 6.00.
Same read-out and setting: with `CC(C)c1cc(-c2ccccc2)c(C#N)c(N2CCN(C(=O)Cc3ccccc3)[C@H](C)C2)n1` [Compound 131, (R)-6-isopropyl-2-(3-methyl-4-(2-phenylacetyl)piperazin-1-yl)-4-phenylnicotinonitrile] the figure was 5.30 to 6.00.
Still for that read-out and setting: with `CC(C)c1cc(-c2cccc(F)c2)c(C#N)c(N2CCN(C(=O)c3ccoc3)[C@H](C)C2)n1` [Compound 156] the figure was 5.30 to 6.00.

The assay is the same for the next values; noted with them: enzyme assay of Example 12; read-out: IDH1R132H IC50.
Consider `COCCC(=O)N1CCN(c2nc(C3CC3)c(OC(C)c3cccc(Cl)c3)cc2C#N)C[C@H]1C` (stereo partly drawn) [Compound 310, 5-(1-(3-chlorophenyl)ethoxy)-6-cyclopropyl-2-((R)-4-(3-methoxypropanoyl)-3-methylpiperazin-1-yl)nicotinonitrile], for which the pIC50 was 6.00 to 6.30.
Same read-out and setting: with `N#Cc1cc(-c2ccnc(NCCO)n2)c(C2CC2)nc1N1CCN(C(=O)C2CC2)[C@H](C2CC2)C1` [Compound 512, (R)-2-(4-(cyclopropanecarbonyl)-3-cyclopropylpiperazin-1-yl)-6-cyclopropyl-5-(2-(2-hydroxyethylamino)pyrimidin-4-yl)nicotinonitrile] the figure was greater than 6.30.
On the same count and under the same terms, with `COCCC(=O)N1CCN(c2nc(C3CC3)c(-c3ccc(S(C)(=O)=O)cc3)c(C)c2C#N)C[C@H]1C` [Compound 319, (R)-6-cyclopropyl-5-(4-methanesulfonyl-phenyl)-2-[4-(3-methoxy-propionyl)-3-methyl-piperazin-1-yl]-4-methyl-nicotinonitrile] the figure was greater than 6.30; with `CNS(=O)(=O)c1ccc(-c2c(C3CC3)nc(N3CCN(C(=O)CCOC)[C@H](C)C3)c(C#N)c2C)cc1` [Compound 331, (R)-4-{5-cyano-2-cyclopropyl-6-[4-(3-methoxy-propionyl)-3-methyl-piperazin-1-yl]-4-methyl-pyridin-3-yl}-N-methyl-benzenesulfonamide], greater than 6.30.
On the same count and under the same terms, with `COCCC(=O)N1CCN(c2nc(C3CC3)c(-c3cccc(F)c3F)c(C)c2C#N)C[C@H]1C` [Compound 405, (R)-6-cyclopropyl-5-(2,3-difluoro-phenyl)-2-[4-(3-methoxy-propionyl)-3-methyl-piperazin-1-yl]-4-methyl-nicotinonitrile] the figure was greater than 6.30.
Take `N#Cc1cc(-c2cccc3cnccc23)c(C2CC2)nc1N1CCN(C(=O)C2CC2)C(C(F)F)C1` (centres unmarked) [Compound 422, 2-(4-(cyclopropanecarbonyl)-3-(difluoromethyl)piperazin-1-yl)-6-cyclopropyl-5-(isoquinolin-5-yl)nicotinonitrile]: the pIC50 is 6.00 to 6.30.
With `COC(=O)CCC(=O)N1CCN(c2nc(C3CC3)c(-c3ccnc(Cl)c3)cc2C#N)C[C@H]1C1CC1` [Compound 739, (R)-methyl 4-(4-(2′-chloro-5-cyano-2-cyclopropyl-3,4′-bipyridin-6-yl)-2-cyclopropylpiperazin-1-yl)-4-oxobutanoate], the pIC50 is greater than 6.30.
Regarding `COCCC(=O)N1CCN(c2nc(C3CC3)c(OCc3ccc(OC)cc3)cc2C#N)C[C@H]1C` [Compound 281, (R)-6-cyclopropyl-5-(4-methoxybenzyloxy)-2-(4-(3-methoxypropanoyl)-3-methylpiperazin-1-yl)nicotinonitrile], the pIC50 was 6.00 to 6.30.
On the same count and under the same terms, with `COCCC(=O)N1CCN(c2nc(C3CC3)c(Nc3ccnc(OC)c3)cc2C#N)C[C@H]1C` [Compound 682, (R)-6-cyclopropyl-2-(4-(3-methoxypropanoyl)-3-methylpiperazin-1-yl)-5-((2-methoxypyridin-4-yl)amino)nicotinonitrile] the figure was greater than 6.30; with `CN(C)c1nccc(-c2cc(C#N)c(N3CCN(C(=O)CC(F)(F)F)[C@H](C4CC4)C3)nc2C2CC2)n1` [Compound 521, (R)-6-cyclopropyl-2-(3-cyclopropyl-4-(3,3,3-trifluoropropanoyl)piperazin-1-yl)-5-(2-(dimethylamino)pyrimidin-4-yl)nicotinonitrile], greater than 6.30.
Still for that read-out and setting: with `N#Cc1cc(Oc2cc(Cl)ccn2)c(C2CC2)nc1N1CCN(C(=O)CCO)[C@H](C2CC2)C1` [Compound 734, (R)-5-((4-chloropyridin-2-yl)oxy)-6-cyclopropyl-2-(3-cyclopropyl-4-(3-hydroxypropanoyl)piperazin-1-yl)nicotinonitrile] the figure was greater than 6.30; with `COCCC(=O)N1CCN(c2nc(C3CC3)c(-c3cc(Cl)nc(Cl)c3)cc2C#N)C[C@H]1C` [Compound 586, (R)-2′,6′-dichloro-2-cyclopropyl-6-(4-(3-methoxypropanoyl)-3-methylpiperazin-1-yl)-[3,4′-bipyridine]-5-carbonitrile], greater than 6.30; with `COCCC(=O)N1CCN(c2nc(C3CC3)c(-c3ccc(C(=O)OC)cc3)cc2C#N)C[C@H]1C` [Compound 665, (R)-methyl-4-(5-cyano-2-cyclopropyl-6-(4-(3-methoxypropanoyl)-3-methylpiperazin-1-yl)pyridin-3-yl)benzoate], greater than 6.30.
With `C=Cc1cnnc(-c2c(C3CC3)nc(N3CCN(C(=O)C[C@@H]4CCO4)[C@H](C4CC4)C3)c(C#N)c2C)c1` [Compound 780, 6-cyclopropyl-2-((R)-3-cyclopropyl-4-(2-((S)-oxetan-2-yl)acetyl)piperazin-1-yl)-4-methyl-5-(5-vinylpyridazin-3-yl)nicotinonitrile], the pIC50 is greater than 6.30.
Still for that read-out and setting: with `C=Cc1ccnc(Nc2cc(C#N)c(N3CCN(C(=O)CCCCC)[C@H](C4CC4)C3)nc2C2CC2)c1` [Compound 830, (R)-6-cyclopropyl-2-(3-cyclopropyl-4-hexanoylpiperazin-1-yl)-5-(4-vinylpyridin-2-ylamino)nicotinonitrile] the figure was greater than 6.30.
As for `COCCC(=O)N1CCN(c2nc(C3CC3)c(-c3ccc(N)nc3)cc2C#N)C[C@H]1C` [Compound 314, (R)-6′-amino-2-cyclopropyl-6-(4-(3-methoxypropanoyl)-3-methylpiperazin-1-yl)-3,3′-bipyridine-5-carbonitrile], the negative-log IC50 (pIC50) was 6.00 to 6.30.
Still for that read-out and setting: with `C=Cc1ccnc(Nc2cc(C#N)c(N3CCN(C(=O)/C=C/CCO)[C@H](C4CC4)C3)nc2C2CC2)c1` [Compound 798, (R,E)-6-cyclopropyl-2-(3-cyclopropyl-4-(5-hydroxypent-2-enoyl)piperazin-1-yl)-5-((4-vinylpyridin-2-yl)amino)nicotinonitrile] the figure was greater than 6.30.
The same measure, in the same setting: with `COCCC(=O)N1CCN(c2nc(C3CC3)c(-c3cccc(C(N)=O)c3)cc2C#N)C[C@H]1C` [Compound 305, (R)-3-(5-cyano-2-cyclopropyl-6-(4-(3-methoxypropanoyl)-3-methylpiperazin-1-yl)pyridin-3-yl)benzamide] the figure was 6.00 to 6.30.

As a reminder, the pIC50 is −log10 of the IC50, conventionally taken in molar units.
